# Assays:
# Test in all cases: imazapyr whole plant greenhouse test (Example 2)
# Assay type in all cases: in vivo
# sunflower line L1, A205V = test system: sunflower line L1, A205V
# Experimental: (§1) Seeds were sown in Petri dishes and, after germination, plantlets were transplanted to pots of 10 cm of diameter in a potting media consisting of equal parts of vermiculite, soil and sand. Plants were grown in a greenhouse under natural light conditions supplemented with 400 W sodium halide lamps to provide a 16 hr daylength. Day/night temperatures were 25 and 20 ° C., respectively. At the V2-V4 stage (Schneiter & Miller (1981) Crop Sci. 21:901-903) 10 plants of each genotype were randomly assigned to each treatment consisting of eight imazapyr doses (0, 40, 80, 160, 240, 320, 400 and 480 g ai/ha, corresponding to untreated, 0.5×, 1×, 2×, 3×, 4×, 5× and 6×, respectively), and a zero-time biomass determination. Experiment was arranged as a randomized block design with a full factorial (sunflower line×treatment) arrangement of treatments and 10 replications.
# (§2) On the day of herbicide application ten plants of each genotype were cut at the cotyledonal node and dried at 60° C. for 48 hrs for zero-time dried weight determination.
# (§3) The remaining plants were maintained for 14 days after imazapyr treatment (DAT) and their height, Phytotoxicity Index (PI) and above ground dry biomass were determined Height was determined as the distance between the cotyledonal node and the apex of each plant. Above ground biomass data from each line were converted to biomass accumulation after application by subtracting the appropriate average zero- time biomass from each sample. Dry biomass data were converted to percentages of the untreated control plants within each line to allow direct comparisons between groups.
# [1] = test system: sunflower line L5 (BTK 47), susceptible, WT; conditions: for Phytotoxicity Index (0-9) 14 days after treatment / biomass accumulation 14 days after treatment, % of untreated / plant height 14 days after treatment, % of untreated: L5; for height reduction: susceptible line
# Experimental: as §1, §2, §3
# [2] = test system: sunflower hybrid H3 (L3 × L2), A205V + A122T
# Experimental: as §1, §2, §3
compound,measurement,setting,value
CC(C)C1(C)N=C(c2ncccc2C(=O)O)NC1=O (stereo not shown) [imazapyr],Phytotoxicity Index (0-9) 14 days after treatment,"sunflower line L1, A205V; dose 0.5 (0.5x, 40 g ai/ha)",0
same,"biomass accumulation 14 days after treatment, % of untreated","sunflower line L1, A205V; dose 0.5 (0.5x, 40 g ai/ha)",91.7%
same,"plant height 14 days after treatment, % of untreated","sunflower line L1, A205V; dose 0.5 (0.5x, 40 g ai/ha)",100.0%
same,Phytotoxicity Index (0-9) 14 days after treatment,"sunflower line L1, A205V; dose 1 (1x, 80 g ai/ha)",0
same,"biomass accumulation 14 days after treatment, % of untreated","sunflower line L1, A205V; dose 1 (1x, 80 g ai/ha)",81.7%
same,"plant height 14 days after treatment, % of untreated","sunflower line L1, A205V; dose 1 (1x, 80 g ai/ha)",100.0%
same,Phytotoxicity Index (0-9) 14 days after treatment,"sunflower line L1, A205V; dose 2 (2x, 160 g ai/ha)",1.6
same,"biomass accumulation 14 days after treatment, % of untreated","sunflower line L1, A205V; dose 2 (2x, 160 g ai/ha)",54.7%
same,"plant height 14 days after treatment, % of untreated","sunflower line L1, A205V; dose 2 (2x, 160 g ai/ha)",78.9%
same,Phytotoxicity Index (0-9) 14 days after treatment,"sunflower line L1, A205V; dose 3 (3x, 240 g ai/ha)",5.1
same,"biomass accumulation 14 days after treatment, % of untreated","sunflower line L1, A205V; dose 3 (3x, 240 g ai/ha)",35.7%
same,"plant height 14 days after treatment, % of untreated","sunflower line L1, A205V; dose 3 (3x, 240 g ai/ha)",50.0%
same,Phytotoxicity Index (0-9) 14 days after treatment,"sunflower line L1, A205V; dose 4 (4x, 320 g ai/ha)",8.4
same,"biomass accumulation 14 days after treatment, % of untreated","sunflower line L1, A205V; dose 4 (4x, 320 g ai/ha)",25.3%
same,"plant height 14 days after treatment, % of untreated","sunflower line L1, A205V; dose 4 (4x, 320 g ai/ha)",38.1%
same,Phytotoxicity Index (0-9) 14 days after treatment,"sunflower line L1, A205V; dose 5 (5x, 400 g ai/ha)",8.9
same,"biomass accumulation 14 days after treatment, % of untreated","sunflower line L1, A205V; dose 5 (5x, 400 g ai/ha)",19.8%
same,"plant height 14 days after treatment, % of untreated","sunflower line L1, A205V; dose 5 (5x, 400 g ai/ha)",31.8%
same,Phytotoxicity Index (0-9) 14 days after treatment,"sunflower line L1, A205V; dose 6 (6x, 480 g ai/ha)",8.9
same,"biomass accumulation 14 days after treatment, % of untreated","sunflower line L1, A205V; dose 6 (6x, 480 g ai/ha)",19.5%
same,"plant height 14 days after treatment, % of untreated","sunflower line L1, A205V; dose 6 (6x, 480 g ai/ha)",34.7%
same,Phytotoxicity Index (0-9) 14 days after treatment,"[1]; dose 0.5 (0.5x, 40 g ai/ha)",9
same,"biomass accumulation 14 days after treatment, % of untreated","[1]; dose 0.5 (0.5x, 40 g ai/ha)",18.3%
same,"plant height 14 days after treatment, % of untreated","[1]; dose 0.5 (0.5x, 40 g ai/ha)",20.14%
same,Phytotoxicity Index (0-9) 14 days after treatment,"[1]; dose 1 (1x, 80 g ai/ha)",9
same,"biomass accumulation 14 days after treatment, % of untreated","[1]; dose 1 (1x, 80 g ai/ha)",15.0%
same,"plant height 14 days after treatment, % of untreated","[1]; dose 1 (1x, 80 g ai/ha)",14.58%
same,Phytotoxicity Index (0-9) 14 days after treatment,"[1]; dose 2 (2x, 160 g ai/ha)",9
same,"biomass accumulation 14 days after treatment, % of untreated","[1]; dose 2 (2x, 160 g ai/ha)",15.0%
same,"plant height 14 days after treatment, % of untreated","[1]; dose 2 (2x, 160 g ai/ha)",14.58%
same,Phytotoxicity Index (0-9) 14 days after treatment,"[1]; dose 3 (3x, 240 g ai/ha)",9
same,"biomass accumulation 14 days after treatment, % of untreated","[1]; dose 3 (3x, 240 g ai/ha)",15.0%
same,"plant height 14 days after treatment, % of untreated","[1]; dose 3 (3x, 240 g ai/ha)",14.58%
same,Phytotoxicity Index (0-9) 14 days after treatment,"[1]; dose 4 (4x, 320 g ai/ha)",9
same,"biomass accumulation 14 days after treatment, % of untreated","[1]; dose 4 (4x, 320 g ai/ha)",15.0%
same,"plant height 14 days after treatment, % of untreated","[1]; dose 4 (4x, 320 g ai/ha)",14.58%
same,Phytotoxicity Index (0-9) 14 days after treatment,"[1]; dose 5 (5x, 400 g ai/ha)",9
same,"biomass accumulation 14 days after treatment, % of untreated","[1]; dose 5 (5x, 400 g ai/ha)",15.0%
same,"plant height 14 days after treatment, % of untreated","[1]; dose 5 (5x, 400 g ai/ha)",14.58%
same,Phytotoxicity Index (0-9) 14 days after treatment,"[1]; dose 6 (6x, 480 g ai/ha)",9
same,"biomass accumulation 14 days after treatment, % of untreated","[1]; dose 6 (6x, 480 g ai/ha)",15.0%
same,"plant height 14 days after treatment, % of untreated","[1]; dose 6 (6x, 480 g ai/ha)",14.58%
same,height reduction,"[1]; 0.5x, 14 DAT",85%
same,height reduction,"[1]; from 1x to 6x, of the untreated control plants",approximately 85%
same,Phytotoxicity Index (0-9) 14 days after treatment,"[2]; dose 0.5 (0.5x, 40 g ai/ha)",0.5
same,"biomass accumulation 14 days after treatment, % of untreated","[2]; dose 0.5 (0.5x, 40 g ai/ha)",99.804%
same,"plant height 14 days after treatment, % of untreated","[2]; dose 0.5 (0.5x, 40 g ai/ha)",98.7%
same,Phytotoxicity Index (0-9) 14 days after treatment,"[2]; dose 1 (1x, 80 g ai/ha)",0.5
same,"biomass accumulation 14 days after treatment, % of untreated","[2]; dose 1 (1x, 80 g ai/ha)",100.0%
same,"plant height 14 days after treatment, % of untreated","[2]; dose 1 (1x, 80 g ai/ha)",97.0%
same,Phytotoxicity Index (0-9) 14 days after treatment,"[2]; dose 2 (2x, 160 g ai/ha)",0.5
same,"biomass accumulation 14 days after treatment, % of untreated","[2]; dose 2 (2x, 160 g ai/ha)",94.3%
same,"plant height 14 days after treatment, % of untreated","[2]; dose 2 (2x, 160 g ai/ha)",96.7%
same,Phytotoxicity Index (0-9) 14 days after treatment,"[2]; dose 3 (3x, 240 g ai/ha)",0.5
same,"biomass accumulation 14 days after treatment, % of untreated","[2]; dose 3 (3x, 240 g ai/ha)",90.8%

# Source: patent US20150148234A1, “HERBICIDE-RESISTANT SUNFLOWER PLANTS WITH MULTIPLE HERBICIDE RESISTANT ALLELES OF AHASL1 AND METHODS OF USE” (NIDERA S.A., priority 2013, published 2015)
